According to patent US4200628A, “Novel aminoglycoside derivatives” (Shionogi & Co., Ltd., priority 1977, dated 1980):
Values after ≈ are worked out from the molar mass of the structure shown. Like-named read-outs stand apart in the source and are kept apart here.

Experiments:
Test in all cases: MIC, antimicrobial activity
[1] = test system: Enterobacter cloacae TB-718; type: cell-based; conditions: for Minimum Inhibitory Concentration (MIC): Enterobacter cloacae TB-718; for MIC: Enterobacter cloacae, TB718, Enterobacter cloacae TB-718, read-out: Minimum Inhibitory Concentration (MIC)
[2] = test system: Proteus mirabilis TB-617; type: cell-based; conditions: for Minimum Inhibitory Concentration (MIC): Proteus mirabilis TB-617; for MIC: Proteus mirabilis, TB617, Proteus mirabilis TB-617, read-out: Minimum Inhibitory Concentration (MIC)
[3] = test system: Proteus inconstans In-27; type: cell-based; conditions: for MIC: Providencia alcalifaciens, IN27, read-out: Minimum Inhibitory Concentration (MIC), Proteus inconstans In-27, tobramycin resistant strain; for Minimum Inhibitory Concentration (MIC): Proteus inconstans In-27, tobramycin resistant strain
[4] = test system: Staphylococcus aureus FDAJC; conditions: for MIC: Staphylococcus aureus, read-out: Minimum Inhibitory Concentration (MIC), Staphylococcus aureus FDAJC; for Minimum Inhibitory Concentration (MIC): Staphylococcus aureus FDAJC
[5] = test system: Escherichia coli NIHJ JC-2; conditions: for Minimum Inhibitory Concentration (MIC): Escherichia coli NIHJ JC-2; for MIC: Escherichia coli
[6] = test system: Escherichia coli W-677/JR-762; conditions: for Minimum Inhibitory Concentration (MIC): Escherichia coli W-677/JR-762, tobramycin resistant strain; for MIC: Escherichia coli, W677/JR762, read-out: Minimum Inhibitory Concentration (MIC), Escherichia coli W-677/JR-762, tobramycin resistant strain
[7] = test system: Klebsiella pneumoniae Kl-38; conditions: for Minimum Inhibitory Concentration (MIC): Klebsiella pneumoniae Kl-38; for MIC: Klebsiella pneumoniae
[8] = test system: Serratia marcescens ATCC 13880; conditions: for MIC: Serratia marcescens
[9] = test system: Proteus rettgeri Ret 40; conditions: for Minimum Inhibitory Concentration (MIC): Proteus rettgeri Ret 40; for MIC: Providencia rettgeri, RET40, read-out: Minimum Inhibitory Concentration (MIC), Proteus rettgeri Ret 40
[10] = test system: Pseudomonas aeruginosa Ps-24; conditions: for Minimum Inhibitory Concentration (MIC): Pseudomonas aeruginosa Ps-24; for MIC: Pseudomonas aeruginosa
[11] = test system: Pseudomonas aeruginosa PP-6; conditions: for MIC: Pseudomonas aeruginosa; for Minimum Inhibitory Concentration (MIC): Pseudomonas aeruginosa PP-6, tobramycin resistant strain
[12] = ATCC13880, read-out: Minimum Inhibitory Concentration (MIC)
[13] = PP6, read-out: Minimum Inhibitory Concentration (MIC), Pseudomonas aeruginosa PP-6, tobramycin resistant strain
[14] = ATCC13880, read-out: Minimum Inhibitory Concentration (MIC), Serratia marcescens ATCC 13880
[15] = NIHJJC2, read-out: Minimum Inhibitory Concentration (MIC), Escherichia coli NIHJ JC-2
[16] = KL38, read-out: Minimum Inhibitory Concentration (MIC), Klebsiella pneumoniae Kl-38
[17] = PS24, read-out: Minimum Inhibitory Concentration (MIC), Pseudomonas aeruginosa Ps-24
[18] = PP6, read-out: Minimum Inhibitory Concentration (MIC)
[19] = NIHJJC2, read-out: Minimum Inhibitory Concentration (MIC)
[20] = KL38, read-out: Minimum Inhibitory Concentration (MIC)

Structure (SMILES) | Minimum Inhibitory Concentration (MIC) [1] [µg/mL] | Minimum Inhibitory Concentration (MIC) [2] [µg/mL] | MIC [3] [µg/mL] | MIC [4] [µg/mL] | Minimum Inhibitory Concentration (MIC) [5] [µg/mL] | Minimum Inhibitory Concentration (MIC) [6] [µg/mL] | Minimum Inhibitory Concentration (MIC) [7] [µg/mL] | MIC [8, 12] [µg/mL] | Minimum Inhibitory Concentration (MIC) [9] [µg/mL] | Minimum Inhibitory Concentration (MIC) [10] [µg/mL] | MIC [11, 13] [µg/mL] | Minimum Inhibitory Concentration (MIC) [4] [µg/mL] | MIC [8, 14] [µg/mL] | MIC [1] [µg/mL] | MIC [2] [µg/mL] | MIC [5, 15] [µg/mL] | MIC [6] [µg/mL] | MIC [7, 16] [µg/mL] | MIC [9] [µg/mL] | MIC [10, 17] [µg/mL] | further results
NC[C@H]1O[C@H](O[C@H]2[C@H](O)[C@@H](O[C@H]3O[C@H](CO)[C@@H](O)[C@H](N)[C@H]3O)[C@H](NC(=O)C(O)C3CNCCN3)C[C@@H]2N)[C@H](N)C[C@@H]1O (single isomer, unassigned) [(8), 1-N-[2-hydroxy-2-(piperazin-2-yl)acetyl]tobramycin] | 0.8 | 1.6 | 100 (≈ 164 µM) | 0.1 (≈ 0.164 µM) | 1.6 | 3.1 | 0.8 | 25 (≈ 41 µM) | 0.8 | 0.8 | 12.5 (≈ 20.5 µM) |  |  |  |  |  |  |  |  |  | 
NC[C@H]1O[C@H](O[C@H]2[C@H](O)[C@@H](O[C@H]3O[C@H](CO)[C@@H](O)[C@H](N)[C@H]3O)[C@H](NC(=O)C(O)C3CNCCN3)C[C@@H]2N)[C@H](N)C[C@@H]1O (single isomer, unassigned) [(9), 1-N-[2-hydroxy-2-(piperazin-2-yl)acetyl]tobramycin] | 12.5 | 6.2 |  |  | 25.0 | 25.0 | 6.2 |  | 3.1 | 3.1 |  | 0.1 | 100 (≈ 164 µM) |  |  |  |  |  |  |  | Minimum Inhibitory Concentration (MIC) [3]: > 100.0 µg/mL; Minimum Inhibitory Concentration (MIC) [11]: 25.0 µg/mL
NC[C@H]1O[C@H](O[C@H]2[C@H](O)[C@@H](O[C@H]3O[C@H](CO)[C@@H](O)[C@H](N)[C@H]3O)[C@H](NC(=O)C(O)C3CCNC3)C[C@@H]2N)[C@H](N)C[C@@H]1O (stereo partly shown) [(1), 1-N-[2-hydroxy-2-(pyrrolidin-3-yl)acetyl]tobramycin] |  |  | 100 (≈ 168 µM) | 0.1 (≈ 0.168 µM) |  |  |  |  |  |  |  |  | 12.5 (≈ 21 µM) | 1.6 (≈ 2.69 µM) | 3.1 (≈ 5.21 µM) | 1.6 (≈ 2.69 µM) | 6.2 (≈ 10.4 µM) | 0.8 (≈ 1.35 µM) | 0.8 (≈ 1.35 µM) | 1.6 (≈ 2.69 µM) | MIC [11, 18]: 3.1 µg/mL (≈ 5.21 µM)
NC[C@H]1O[C@H](O[C@H]2[C@H](O)[C@@H](O[C@H]3O[C@H](CO)[C@@H](O)[C@H](N)[C@H]3O)[C@H](NC(=O)C(O)C3CCN3)C[C@@H]2N)[C@H](N)C[C@@H]1O (stereo partly shown) [(2), 1-N-[2-hydroxy-2-(azetidin-2-yl)acetyl]tobramycin] |  |  | > 100 | 0.1 (≈ 0.172 µM) |  |  |  | 50 (≈ 86.1 µM) |  |  | 12.5 (≈ 21.5 µM) |  |  | 3.1 (≈ 5.34 µM) | 3.1 (≈ 5.34 µM) | 6.2 (≈ 10.7 µM) | 6.2 (≈ 10.7 µM) | 1.6 (≈ 2.76 µM) | 0.8 (≈ 1.38 µM) | 1.6 (≈ 2.76 µM) | 
NC[C@H]1O[C@H](O[C@H]2[C@H](O)[C@@H](O[C@H]3O[C@H](CO)[C@@H](O)[C@H](N)[C@H]3O)[C@H](NC(=O)C(O)C3CNC3)C[C@@H]2N)[C@H](N)C[C@@H]1O (stereo partly shown) [(3), 1-N-[2-hydroxy-2-(azetidin-3-yl)acetyl]tobramycin] |  |  | 50 (≈ 86.1 µM) | 0.1 (≈ 0.172 µM) |  |  |  | 6.2 (≈ 10.7 µM) |  |  |  |  |  | 0.4 (≈ 0.689 µM) | 0.8 (≈ 1.38 µM) | 0.4 (≈ 0.689 µM) | 1.6 (≈ 2.76 µM) | 0.4 (≈ 0.689 µM) | 0.4 (≈ 0.689 µM) | 0.4 (≈ 0.689 µM) | MIC [11, 18]: 1.6 µg/mL (≈ 2.76 µM)
NC[C@H]1O[C@H](O[C@H]2[C@H](O)[C@@H](O[C@H]3O[C@H](CO)[C@@H](O)[C@H](N)[C@H]3O)[C@H](NC(=O)C(O)C3CCCNC3)C[C@@H]2N)[C@H](N)C[C@@H]1O (stereo partly shown) [(4), 1-N-[2-hydroxy-2-(piperidin-3-yl)acetyl]tobramycin] |  |  | > 100 | 0.1 (≈ 0.164 µM) |  |  |  | 25 (≈ 41.1 µM) |  |  | 25 (≈ 41.1 µM) |  |  | 1.6 (≈ 2.63 µM) | 3.1 (≈ 5.09 µM) | 1.6 (≈ 2.63 µM) | > 100 | 1.6 (≈ 2.63 µM) | 1.6 (≈ 2.63 µM) | 12.5 (≈ 20.5 µM) | 
NC[C@H]1O[C@H](O[C@H]2[C@H](O)[C@@H](O[C@H]3O[C@H](CO)[C@@H](O)[C@H](N)[C@H]3O)[C@H](NC(=O)C(O)C3CCCN3)C[C@@H]2N)[C@H](N)C[C@@H]1O (stereo partly shown) [(5), 1-N-[2-hydroxy-2-(pyrrolidin-2-yl)acetyl]tobramycin] | 6.2 | 6.2 | > 100 |  |  | 25.0 | 6.2 |  | 3.1 | 6.2 | 25 (≈ 42 µM) | 0.1 | 100 (≈ 168 µM) |  |  |  |  |  |  |  | MIC [5, 19]: 12.5 µg/mL (≈ 21 µM)
NC[C@H]1O[C@H](O[C@H]2[C@H](O)[C@@H](O[C@H]3O[C@H](CO)[C@@H](O)[C@H](N)[C@H]3O)[C@H](NC(=O)C(O)C3CCCN3)C[C@@H]2N)[C@H](N)C[C@@H]1O (stereo partly shown) [(6), 1-N-[2-hydroxy-2-(pyrrolidin-2-yl)acetyl]tobramycin] | 0.8 | 0.8 |  |  | 0.8 | 3.1 | 0.8 | 25 (≈ 42 µM) | 0.2 | 1.6 |  | 0.1 |  |  |  |  |  |  |  |  | Minimum Inhibitory Concentration (MIC) [3]: > 100.0 µg/mL; MIC [11, 18]: 6.2 µg/mL (≈ 10.4 µM)
NC[C@H]1O[C@H](O[C@H]2[C@H](O)[C@@H](O[C@H]3O[C@H](CO)[C@@H](O)[C@H](N)[C@H]3O)[C@H](NC(=O)C(O)C3CCCN3)C[C@@H]2N)[C@H](N)C[C@@H]1O (stereo partly shown) [(7), 1-N-[2-hydroxy-2-(pyrrolidin-2-yl)acetyl]tobramycin] | 25.0 | 12.5 |  |  | 50.0 | 100.0 |  |  | 6.2 |  |  | 0.4 |  |  |  |  |  |  |  |  | Minimum Inhibitory Concentration (MIC) [3]: > 100.0 µg/mL; MIC [7, 20]: 12.5 µg/mL (≈ 21 µM); Minimum Inhibitory Concentration (MIC) ([8]; Serratia marcescens ATCC 13880): > 100.0 µg/mL; MIC ([10]; PS24, read-out: Minimum Inhibitory Concentration (MIC)): 12.5 µg/mL (≈ 21 µM); Minimum Inhibitory Concentration (MIC) [11]: 50.0 µg/mL
NC[C@H]1O[C@H](O[C@H]2[C@H](O)[C@@H](O[C@H]3O[C@H](CO)[C@@H](O)[C@H](N)[C@H]3O)[C@H](N)C[C@@H]2N)[C@H](N)C[C@@H]1O [TOB, tobramycin, reference compound] |  |  |  | 0.05 (≈ 0.107 µM) |  |  |  |  |  |  | 50 (≈ 107 µM) |  | 3.13 (≈ 6.69 µM) |  |  |  |  |  | 0.39 (≈ 0.834 µM) | 0.39 (≈ 0.834 µM) | MIC [5, 19]: 0.78 µg/mL (≈ 1.67 µM); MIC [7, 20]: 3.13 µg/mL (≈ 6.69 µM)
